Measurements reported in patent US20190262347A1, “COMPOSITION COMPRISING COMBINATION OF EPICATECHIN AND ANTI-CANCER COMPOUND” (SPHAERA PHARMA PVT. LTD., priority 2016, published 2019).

Test system: HCT116 induced xenograft
Test: 21 days efficacy study in HCT116 induced xenograft model in mice
Type: in vivo
Conditions: 1004 5 mpk, epicatechin 30 mpk
Experimental: Anticancer potential of epicatechin in combination with a PI3K/mTOR inhibitor is evaluated against cancer xenograft model in immunocompromised mice. CD1 nude mice are dosed for a period of 21 days with vehicle control, PI3K/mTOR inhibitor and a combination of PI3K/mTORinhibitor and epicatechin. […] The results are presented at Table 2, Table 3 and FIGS. 1a and 1b.

With `C[C@H]1COCCN1c1nc(Oc2ccc(C(=O)N(C)C)cc2F)nc(-c2ccc(N)nc2)n1` [Compound 1004, (S)-4-((4-(6-aminopyridin-3-yl)-6-(3-methylmorpholino)-1,3,5-triazin-2-yl)oxy)-3-fluoro-N,N-dimethylbenzamide] the “T/C % (Mean), Treated/Control on 21st day” value (CD1 nude mice, HCT116 xenograft, 21st day, oral) was 29%, the “TGI % (Mean), tumor growth inhibition” value (CD1 nude mice, HCT116 xenograft, dosed 21 days, oral) was 80% and the “Tumor weight” value (HCT116 xenograft in mice) was 0.72 g.
